This is an account of results in PubChem BioAssay (NCI).

Where “and” joins values, the source holds several entries; their conditions need not be identical. Equal values may be shown once.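 Interpolation was linear, between the two tested concentrations surrounding the appropriate level; five concentrations were tested over 48 hours in 96-well plates. GI50: concentration for 50% inhibition of growth. TGI: concentration producing complete growth inhibition.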

What all share (experiment): inhibition of tumour cell growth, NCI panel, 48 h
For assay [1], the system named is NCI-H460 lung.
Assay [2] has as its system U251 CNS.
Assay [3] deals with HOP-62 NSCLC.
For assay [4], the system named is SNB-75 CNS.
Assay [5] deals with RXF 393 renal.
Assay [6] has as its system SR leukemia.
In assay [7] the test system is HCT-116 colon.
Assay [8] has as its system OVCAR-8 ovarian.
Assay [9] relates to SF-295 CNS.
For assay [10], the system named is UACC-257 melanoma.

Regarding `CC(C)C[C@H](NC(=O)[C@H](Cc1ccccc1)n1ccc(N2CCCCC2)cc1=O)B(O)O`, the GI50 was 3.18 µM in [1]; 1.18 µM in assay [2]; 2.63 µM in assay [3]; 0.461 µM in [4]; 0.284 µM in assay [5]; 0.259 µM in assay [6]. In addition, the results for the GI50 in assay [7], in assay [8] and in assay [9] were 0.343 µM, 3.64 µM and 0.585 µM, respectively. Also, the TGI in assay [1] is greater than 100 µM; in assay [2] it was greater than 100 µM; in assay [3], 9.29 µM; in [4], 3.82 µM; in assay [5], 0.882 µM; in assay [6] it was 11.6 µM. In addition, the TGI in assay [7] was 2.55 µM; in [8], greater than 100 µM; in assay [9] it was 4.51 µM.
For the molecule `CCC/C(=N\NC(=S)N1CCN(c2ccccn2)CC1)c1ccccn1`, the TGI in assay [1] was greater than 4.19 µM; in assay [2], 0.48 µM and 1.38 µM; in assay [3], 2.92 µM and 1.59 µM; in [4] it was 1.84 µM and 0.325 µM; in [5], 2.08 µM and 1.38 µM; in assay [6] it was 0.117 µM. Besides, the TGI is greater than 3.55 µM in assay [7]; 0.224 µM and 1.87 µM in assay [10]; 0.476 µM and 1.5 µM in assay [8]; 6.14 µM and 1.26 µM in assay [9]. Further, the GI50 in assay [3] was 0.0603 µM; in assay [5], 0.0102 µM.
For the molecule `O=C(/C=C/c1ccco1)c1ccc(Nc2nc(Nc3ccc(F)cc3)nc(Nc3ccc(Cl)cc3)n2)cc1`, the GI50 in [1] was 9.29 µM; in [2], 19.5 µM; in assay [3], greater than 50 µM; in assay [4] it was 30.5 µM; in assay [5], 7.09 µM; in [6], greater than 20.7 µM. Also, the results for the GI50 in assay [7], in assay [10] and in assay [8] were 16.5 µM, 15.2 µM and 18.3 µM, respectively. Besides, the TGI was 31.9 µM in [1]; 53.8 µM in assay [2]; greater than 87.1 µM in assay [3]; greater than 80.9 µM in assay [4]; 45.9 µM in assay [5]; greater than 44.5 µM in assay [6]. Besides, the TGI is greater than 54.4 µM in assay [7], greater than 57.4 µM in [10] and 57.3 µM in assay [8].
Regarding `O=C1NC(=O)C(C(=O)C(=O)Nc2ccc(Br)cc2)C(=O)N1`, the TGI in [2], in assay [4], in [5], in [6], in assay [7] and in assay [10] was greater than 100 µM in each case. The TGI in assay [8] and in assay [9] was greater than 100 µM in each case.
As to `O=C(CCN1CCN(c2cccc(Cl)c2)CC1)N1CCc2c([nH]c3ccccc23)C1c1cccnc1` (configuration not stated), the TGI in assay [1] is 16.9 µM; in assay [2], 21.5 µM; in assay [3], 23.9 µM; in [4] it was 17.1 µM; in [5], 21 µM; in [6], 7.83 µM and 27 µM. Also, the TGI in assay [7] amounted to 18.3 µM; in [10] it was 21.3 µM; in assay [8], 21.7 µM. Also, the GI50 in assay [2] was 9.96 µM; in [4], 6.24 µM; in [5] it was 6.31 µM; in [6], 5.06 µM; in [7], 6.36 µM; in [10] it was 6.43 µM.
Consider `CCCc1c2c([nH]c(=O)c1C)C(=O)c1[nH]c(=O)c(C)c(CCC)c1C2=O`, for which the TGI was 77.3 µM in [1]; greater than 100 µM in [3]; 55.9 µM in assay [4]; 69.2 µM in assay [5]; 42.2 µM in assay [6]; 36.7 µM in assay [7]. For the same molecule, the TGI in assay [10] is 6.99 µM; in assay [8], 17.8 µM; in assay [9], greater than 100 µM.
Turning to `CC(C(=O)N1C(=O)N(C(=O)C(C)C(O)c2ccccc2)C(c2ccccc2)C1c1ccccc1)C(O)c1ccccc1` (configuration not stated), the TGI was 19.9 µM in [1]; 27.8 µM in assay [2]; greater than 100 µM in assay [3]; 54.8 µM in [4]; 28.1 µM in [5]; 14.5 µM in assay [6]. The results for the TGI in assay [7], in assay [8] and in [9] were 26.7 µM, greater than 100 µM and 10.8 µM, respectively.
With `COC(=O)c1c[nH]cc1CCc1c[nH]cc1C(=O)OC`, the TGI in assay [1], in assay [2], in assay [3], in assay [5], in assay [6] and in assay [7] was greater than 100 µM throughout. For the same molecule, the TGI in assay [10], in assay [8] and in assay [9] was greater than 100 µM throughout.
With `CN(C)c1ccc(-c2cc(=O)c3ccccc3[nH]2)cc1`, the TGI in assay [1], in assay [2], in assay [3], in assay [5], in assay [6] and in assay [7] was greater than 100 µM each time. In addition, the TGI in assay [10], in assay [8] and in assay [9] was greater than 100 µM each time.
On to `O=C(O)c1ccc(S(=O)(=O)c2ccccc2)c([N+](=O)[O-])c1`, for which the TGI in assay [1], in assay [2], in assay [3], in [4], in [5] and in [6] was greater than 100 µM in each case. Moreover, the TGI in [7], in assay [10] and in [9] was greater than 100 µM in each case.
Turning to `C=C1C(=O)O[C@@H]2C[C@@H]1CC[C@]1(C)O[C@H]1CC[C@@]1(C)O[C@@H]1CC[C@@]2(C)O`, the GI50 in assay [1] was greater than 100 µM; in assay [2], 42.8 µM; in [3], 75.8 µM; in assay [5], 55.9 µM; in [6], 3.49 µM; in assay [7] it was 23.1 µM. Further, the GI50 in assay [10] was 61.9 µM; in assay [8], 30.7 µM; in assay [9], 26.7 µM. The TGI in assay [1] was greater than 100 µM; in [2] it was greater than 100 µM; in assay [3], greater than 100 µM; in assay [5], greater than 100 µM; in assay [6], 31.1 µM; in assay [7] it was 65.9 µM. Moreover, the TGI was greater than 100 µM in assay [10], greater than 100 µM in assay [8] and 75.7 µM in assay [9].
As for `CNc1ccccc1C(=O)N/N=C/C=C/c1ccccc1`, the GI50 is 0.503 µM in assay [1]; 1.19 µM in assay [2]; 6.9 µM in assay [3]; 0.673 µM in assay [4]; 0.402 µM in [6]; 0.499 µM in assay [7]. The GI50 is 11.4 µM in assay [10], 3.41 µM in assay [8] and 1.57 µM in assay [9]. The TGI in [1] was greater than 41.9 µM; in assay [2], 34.8 µM; in assay [3], greater than 61.6 µM; in assay [6], greater than 88.8 µM; in assay [7], greater than 100 µM; in assay [10] it was 72.1 µM. Further, the TGI in assay [8] is greater than 100 µM; in assay [9], greater than 54.3 µM.
For the molecule `CCN(CC)CCCN(c1cc(OC)cc2nccnc12)S(=O)(=O)c1ccc(C)cc1`, the TGI in assay [1], in assay [2], in assay [3], in assay [4], in assay [5] and in assay [6] was greater than 100 µM in each case. Further, the TGI in [10], in assay [8] and in assay [9] was greater than 100 µM in each case.
For `CCCCCCCCCCCCN1C(C)=CS/C1=C\C=C\c1scc(C)[n+]1CCCCCCCCCCCC`, the GI50 in assay [1] is 1.43 µM; in assay [3] it was 3.51 µM; in [4], 1.2 µM; in assay [5], 1.42 µM; in [6] it was 1.12 µM; in assay [10], 1.72 µM. Besides, in assay [9], the GI50 was 1.53 µM. For the same molecule, the TGI was 3.51 µM in [1]; 28.7 µM in assay [3]; 4.96 µM in [4]; 5.29 µM in assay [5]; greater than 100 µM in [6]; 5.68 µM in assay [10]. Besides, the TGI in assay [9] is 5.35 µM.
In the case of `CCCN1C(=O)C/C(=C\C(C)=O)Nc2ccccc21`, the TGI in assay [1], in assay [2], in assay [3], in [4], in assay [5] and in assay [6] was greater than 100 µM throughout. The TGI in assay [7], in assay [8] and in assay [9] was greater than 100 µM each time.
With `CCNc1nnc(CSc2nc(-c3ccccc3)c(-c3ccccc3)[nH]2)s1`, the TGI in assay [1] was 59.2 µM; in assay [2], 26.9 µM; in assay [3], 35.7 µM; in assay [4], 82.6 µM; in assay [6] it was greater than 100 µM; in assay [7], 38.8 µM. In addition, the TGI in assay [10] was 34.9 µM; in assay [8], 30 µM; in [9], 34.1 µM.
